In patent US5190741A, “Agents for diagnosing and treating melanomas, aromatic halogenated derivatives usable as such agents and their preparation” (Institut National de la Sante et de la Recherche Medicale …, priority 1989, dated 1993):
Read-outs that look alike come from different tables or passages of the source.

Assay: Tissue distribution in Swiss nu/nu SSCUP mice bearing Beu
Assay type: in vivo, human
Conditions: mouse, iv, 3 umol/animal
Experimental: The study of the tissue distribution of the ^125 I labelled compounds was performed in mice bearing grafted melanomas (cf. autoradiograms above). […] The animals are sacrificed at different time intervals of 1 to 24 hours after the injection. The blood is collected and the principal organs are excised. Aliquots are weighed and the radioactivity of the samples is measured in a […] 1191 counter (analytic tracer). The counting yield for iodine 125 is 60%. The results are expressed: as a percentage of the injected dose bound per g of tissue (% ID/g); in the form of the ratios [formula] This ratio reflects more precisely the selectivity of a molecule for an organ (tables 2, 4, 6, 8, 10 and 12).

[1] = intestine, read-out: intestine % ID/g
[2] = kidney, read-out: kidney % ID/g
[3] = muscle, read-out: muscle % ID/g
[4] = pancreas, read-out: pancreas % ID/g
[5] = plasma, read-out: plasma % ID/g
[6] = spleen, read-out: spleen % ID/g
[7] = stomach, read-out: stomach % ID/g
[8] = submaxillary glands, read-out: submaxillary glands % ID/g

For CCN(CC)CCNC(=O)c1ccc(I)cc1 [Derivative A, N-(2-diethylaminoethyl) 4-iodo benzamide], which tissue uptake at 1 h (blood, read-out: blood % ID/g) is on record?
The tissue uptake at 1 h was 0.87 %ID/g.

What about the tissue uptake at 2 h (blood, read-out: blood % ID/g) of the same compound?
Its tissue uptake at 2 h is 0.53 %ID/g.

And the tissue uptake at 4 h (blood, read-out: blood % ID/g)?
Its tissue uptake at 4 h is 0.32 %ID/g.

And the tissue uptake at 6 h (blood, read-out: blood % ID/g)?
Its tissue uptake at 6 h is 0.13 %ID/g.

What about the tissue uptake at 24 h (blood, read-out: blood % ID/g) of the same compound?
Its tissue uptake at 24 h is 0.01 %ID/g.

And the tissue uptake at 8 h (blood, 8 h, read-out: blood % ID/g)?
The tissue uptake at 8 h was 0.05 %ID/g.

And the tissue uptake at 12 h (blood, read-out: blood % ID/g)?
Its tissue uptake at 12 h is 0.02 %ID/g.

What about the tissue uptake at 1 h (brain, read-out: brain % ID/g) of the same compound?
Its tissue uptake at 1 h is 1.66 %ID/g.

What about the tissue uptake at 2 h (brain, read-out: brain % ID/g) of the same compound?
Its tissue uptake at 2 h is 1.13 %ID/g.

And the tissue uptake at 4 h (brain, read-out: brain % ID/g)?
Its tissue uptake at 4 h is 0.78 %ID/g.

And the tissue uptake at 6 h (brain, read-out: brain % ID/g)?
Its tissue uptake at 6 h is 0.28 %ID/g.

And the tissue uptake at 24 h (brain, read-out: brain % ID/g)?
The tissue uptake at 24 h was 0.006 %ID/g.

What about the tissue uptake at 8 h (brain, 8 h, read-out: brain % ID/g) of the same compound?
The tissue uptake at 8 h was 0.13 %ID/g.

What about the tissue uptake at 12 h (brain, read-out: brain % ID/g) of the same compound?
The tissue uptake at 12 h was 0.01 %ID/g.

What about the tissue uptake at 1 h (eye, read-out: eye % ID/g) of the same compound?
Its tissue uptake at 1 h is 0.64 %ID/g.

And the tissue uptake at 2 h (eye, read-out: eye % ID/g)?
Its tissue uptake at 2 h is 0.56 %ID/g.

What about the tissue uptake at 4 h (eye, read-out: eye % ID/g) of the same compound?
The tissue uptake at 4 h was 0.34 %ID/g.

And the tissue uptake at 6 h (eye, read-out: eye % ID/g)?
Its tissue uptake at 6 h is 0.13 %ID/g.

What about the tissue uptake at 24 h (eye, read-out: eye % ID/g) of the same compound?
Its tissue uptake at 24 h is 0.03 %ID/g.

And the tissue uptake at 8 h (eye, 8 h, read-out: eye % ID/g)?
The tissue uptake at 8 h was 0.07 %ID/g.

What about the tissue uptake at 12 h (eye, read-out: eye % ID/g) of the same compound?
The tissue uptake at 12 h was 0.03 %ID/g.

And the tissue uptake at 1 h [1]?
The tissue uptake at 1 h was 3.76 %ID/g.

What about the tissue uptake at 2 h [1] of the same compound?
The tissue uptake at 2 h was 2.35 %ID/g.

What about the tissue uptake at 4 h [1] of the same compound?
Its tissue uptake at 4 h is 1.56 %ID/g.

And the tissue uptake at 6 h [1]?
The tissue uptake at 6 h was 0.52 %ID/g.

And the tissue uptake at 8 h (intestine, 8 h, read-out: intestine % ID/g)?
The tissue uptake at 8 h was 0.15 %ID/g.

And the tissue uptake at 12 h [1]?
The tissue uptake at 12 h was 0.08 %ID/g.

What about the tissue uptake at 24 h [1] of the same compound?
Its tissue uptake at 24 h is 0.03 %ID/g.

And the tissue uptake at 1 h [2]?
The tissue uptake at 1 h was 7.63 %ID/g.

And the tissue uptake at 2 h [2]?
The tissue uptake at 2 h was 5.9 %ID/g.

What about the tissue uptake at 4 h [2] of the same compound?
The tissue uptake at 4 h was 4.28 %ID/g.

And the tissue uptake at 6 h [2]?
Its tissue uptake at 6 h is 0.99 %ID/g.

And the tissue uptake at 24 h [2]?
Its tissue uptake at 24 h is 0.06 %ID/g.

And the tissue uptake at 8 h (kidney, 8 h, read-out: kidney % ID/g)?
The tissue uptake at 8 h was 0.28 %ID/g.

What about the tissue uptake at 12 h [2] of the same compound?
The tissue uptake at 12 h was 0.1 %ID/g.

What about the tissue uptake at 1 h (liver, read-out: liver % ID/g) of the same compound?
The tissue uptake at 1 h was 5.27 %ID/g.

And the tissue uptake at 2 h (liver, read-out: liver % ID/g)?
The tissue uptake at 2 h was 3.5 %ID/g.

What about the tissue uptake at 4 h (liver, read-out: liver % ID/g) of the same compound?
Its tissue uptake at 4 h is 2.28 %ID/g.

What about the tissue uptake at 6 h (liver, read-out: liver % ID/g) of the same compound?
Its tissue uptake at 6 h is 0.94 %ID/g.

And the tissue uptake at 24 h (liver, read-out: liver % ID/g)?
Its tissue uptake at 24 h is 0.13 %ID/g.

What about the tissue uptake at 8 h (liver, 8 h, read-out: liver % ID/g) of the same compound?
The tissue uptake at 8 h was 0.52 %ID/g.

And the tissue uptake at 12 h (liver, read-out: liver % ID/g)?
The tissue uptake at 12 h was 0.28 %ID/g.

What about the tissue uptake at 1 h (lungs, read-out: lungs % ID/g) of the same compound?
Its tissue uptake at 1 h is 7.77 %ID/g.

And the tissue uptake at 2 h (lungs, read-out: lungs % ID/g)?
Its tissue uptake at 2 h is 4.71 %ID/g.

What about the tissue uptake at 4 h (lungs, read-out: lungs % ID/g) of the same compound?
The tissue uptake at 4 h was 3.6 %ID/g.

What about the tissue uptake at 6 h (lungs, read-out: lungs % ID/g) of the same compound?
The tissue uptake at 6 h was 1.25 %ID/g.

What about the tissue uptake at 8 h (lungs, 8 h, read-out: lungs % ID/g) of the same compound?
Its tissue uptake at 8 h is 0.35 %ID/g.

What about the tissue uptake at 12 h (lungs, read-out: lungs % ID/g) of the same compound?
Its tissue uptake at 12 h is 0.08 %ID/g.

And the tissue uptake at 24 h (lungs, read-out: lungs % ID/g)?
The tissue uptake at 24 h was 0.05 %ID/g.

What about the tissue uptake at 1 h [3] of the same compound?
Its tissue uptake at 1 h is 1.3 %ID/g.

And the tissue uptake at 2 h [3]?
Its tissue uptake at 2 h is 0.93 %ID/g.

What about the tissue uptake at 4 h [3] of the same compound?
Its tissue uptake at 4 h is 0.51 %ID/g.

And the tissue uptake at 6 h [3]?
Its tissue uptake at 6 h is 0.33 %ID/g.

And the tissue uptake at 24 h [3]?
Its tissue uptake at 24 h is 0.01 %ID/g.

And the tissue uptake at 8 h (muscle, 8 h, read-out: muscle % ID/g)?
The tissue uptake at 8 h was 0.08 %ID/g.

And the tissue uptake at 12 h [3]?
The tissue uptake at 12 h was 0.01 %ID/g.

And the tissue uptake at 1 h [4]?
Its tissue uptake at 1 h is 3.99 %ID/g.

What about the tissue uptake at 2 h [4] of the same compound?
The tissue uptake at 2 h was 2.28 %ID/g.

And the tissue uptake at 4 h [4]?
The tissue uptake at 4 h was 1.39 %ID/g.

And the tissue uptake at 6 h [4]?
Its tissue uptake at 6 h is 0.36 %ID/g.

What about the tissue uptake at 8 h (pancreas, 8 h, read-out: pancreas % ID/g) of the same compound?
Its tissue uptake at 8 h is 0.12 %ID/g.

And the tissue uptake at 12 h [4]?
Its tissue uptake at 12 h is 0.06 %ID/g.

What about the tissue uptake at 24 h [4] of the same compound?
Its tissue uptake at 24 h is 0.05 %ID/g.

And the tissue uptake at 1 h [5]?
The tissue uptake at 1 h was 0.46 %ID/g.

What about the tissue uptake at 2 h [5] of the same compound?
Its tissue uptake at 2 h is 0.35 %ID/g.

What about the tissue uptake at 4 h [5] of the same compound?
Its tissue uptake at 4 h is 0.2 %ID/g.

What about the tissue uptake at 6 h [5] of the same compound?
The tissue uptake at 6 h was 0.12 %ID/g.

And the tissue uptake at 24 h [5]?
The tissue uptake at 24 h was 0.01 %ID/g.

What about the tissue uptake at 8 h (plasma, 8 h, read-out: plasma % ID/g) of the same compound?
Its tissue uptake at 8 h is 0.04 %ID/g.

What about the tissue uptake at 12 h [5] of the same compound?
The tissue uptake at 12 h was 0.02 %ID/g.

What about the tissue uptake at 1 h [6] of the same compound?
Its tissue uptake at 1 h is 4.11 %ID/g.

And the tissue uptake at 2 h [6]?
The tissue uptake at 2 h was 2.12 %ID/g.

And the tissue uptake at 4 h [6]?
The tissue uptake at 4 h was 1.07 %ID/g.

What about the tissue uptake at 6 h [6] of the same compound?
The tissue uptake at 6 h was 0.28 %ID/g.

What about the tissue uptake at 8 h (spleen, 8 h, read-out: spleen % ID/g) of the same compound?
The tissue uptake at 8 h was 0.11 %ID/g.

And the tissue uptake at 12 h [6]?
Its tissue uptake at 12 h is 0.04 %ID/g.

And the tissue uptake at 24 h [6]?
Its tissue uptake at 24 h is 0.02 %ID/g.

What about the tissue uptake at 1 h [7] of the same compound?
Its tissue uptake at 1 h is 2.49 %ID/g.

What about the tissue uptake at 2 h [7] of the same compound?
The tissue uptake at 2 h was 1.51 %ID/g.

What about the tissue uptake at 4 h [7] of the same compound?
Its tissue uptake at 4 h is 1.16 %ID/g.

And the tissue uptake at 6 h [7]?
Its tissue uptake at 6 h is 0.49 %ID/g.

What about the tissue uptake at 8 h (stomach, 8 h, read-out: stomach % ID/g) of the same compound?
The tissue uptake at 8 h was 0.22 %ID/g.

What about the tissue uptake at 12 h [7] of the same compound?
Its tissue uptake at 12 h is 0.07 %ID/g.

What about the tissue uptake at 24 h [7] of the same compound?
Its tissue uptake at 24 h is 0.04 %ID/g.

And the tissue uptake at 1 h [8]?
Its tissue uptake at 1 h is 5.11 %ID/g.

And the tissue uptake at 2 h [8]?
Its tissue uptake at 2 h is 2.9 %ID/g.

What about the tissue uptake at 4 h [8] of the same compound?
Its tissue uptake at 4 h is 1.71 %ID/g.

And the tissue uptake at 6 h [8]?
Its tissue uptake at 6 h is 0.95 %ID/g.

And the tissue uptake at 8 h (submaxillary glands, 8 h, read-out: submaxillary glands % ID/g)?
The tissue uptake at 8 h was 0.24 %ID/g.

And the tissue uptake at 12 h [8]?
Its tissue uptake at 12 h is 0.04 %ID/g.

What about the tissue uptake at 24 h [8] of the same compound?
Its tissue uptake at 24 h is 0.03 %ID/g.

And the tissue uptake at 1 h (tumor, read-out: tumor % ID/g)?
The tissue uptake at 1 h was 3.51 %ID/g.

And the tissue uptake at 2 h (tumor, read-out: tumor % ID/g)?
Its tissue uptake at 2 h is 3.17 %ID/g.

And the tissue uptake at 4 h (tumor, read-out: tumor % ID/g)?
The tissue uptake at 4 h was 3.25 %ID/g.

What about the tissue uptake at 6 h (tumor, read-out: tumor % ID/g) of the same compound?
The tissue uptake at 6 h was 1.96 %ID/g.

And the tissue uptake at 24 h (tumor, read-out: tumor % ID/g)?
Its tissue uptake at 24 h is 0.07 %ID/g.

What about the tissue uptake at 8 h (tumor, up to 8 hours, Beu, read-out: intratumoral concentration) of the same compound?
The tissue uptake at 8 h was > 1 %ID/g.

And the tissue uptake at 8 h (tumor, 8 h, read-out: tumor % ID/g)?
Its tissue uptake at 8 h is 1.07 %ID/g.

What about the tissue uptake at 12 h (tumor, read-out: tumor % ID/g) of the same compound?
The tissue uptake at 12 h was 0.36 %ID/g.
